Assay [1] concerns Glioma. The note with it: Rattus norvegicus.
Description: Compound's ability to selectively deliver the requisite amounts of boron to tumors (cellular uptake of boron by the rat F98 Glioma cells at 16h was determined.)
Assay [2] deals with Glioma. The settings on record: Rattus norvegicus. The source holds these as a separate data set.
Description: Compound's ability to selectively deliver the requisite amounts of boron to tumors(amount of boron present in media in rat F98 Glioma cells at 0h after incubation with the compound.)

Turning to “1-[4-(1,2,3,4,5,6,7,8,9,10decabora-Cyclododec-11-en-11-ylmethoxy)-3-hydroxy-5-hydroxymethyl-tetrahydro-furan-2-yl]-1H-pyrimidine-2,4-dione”, in the assay with Glioma [1], the Cellular uptake of boron at 16h (ug of B (g of cells)-1) was found to be 96.2. Further, the Boron in media at 0h with Glioma [2] was 6.75 µg of B/ml.

In the case of “1-[4-Hydroxy-5-hydroxymethyl-3-(1,2,3,4,5,6,7,8,9nonabora-cycloundec-10-en-10-ylmethoxy)-tetrahydro-furan-2-yl]-1H-pyrimidine-2,4-dione”, the Cellular uptake of boron at 16h (ug of B (g of cells)-1) in the assay on Glioma [1] was 1.5. Moreover, the Boron in media at 0h in the assay on Glioma [2] is 6.75 µg of B/ml.

Turning to “1-[5-(1,2,3,4,5,6,7,8,9,10decabora-Cyclododec-11-en-11-ylmethoxymethyl)-3,4-dihydroxy-tetrahydro-furan-2-yl]-1H-pyrimidine-2,4-dione”, the Cellular uptake of boron at 16h (ug of B (g of cells)-1) in the assay with Glioma [1] stood at 83.8. The Boron in media at 0h in the assay with Glioma [2] is 6.75 µg of B/ml.

As to “1-[3-(1,2,3,4,5,6,7,8,9,10decabora-Cyclododec-11-en-11-ylmethoxy)-4-hydroxy-5-hydroxymethyl-tetrahydro-furan-2-yl]-1H-pyrimidine-2,4-dione”, the Cellular uptake of boron at 16h (ug of B (g of cells)-1) in the assay on Glioma [1] came out at 104. The Boron in media at 0h with Glioma [2] is 6.75 µg of B/ml.

“4-(1,2,3,4,5,6,7,8,9,10decabora-Cyclododec-11-en-11-ylmethoxy)-6-hydroxymethyl-tetrahydro-pyran-2,3,5-triol”: in the assay with Glioma [1], the Cellular uptake of boron at 16h (ug of B (g of cells)-1) worked out at 65.2. Moreover, the Boron in media at 0h in the assay with Glioma [2] was 6.75 µg of B/ml.

These data come from ChEMBL document CHEMBL1126184, “Synthesis and in vitro evaluation of boronated uridine and glucose derivatives for boron neutron capture therapy” (1992).
